Measurements taken from patent US12018021B2 (UCB Biopharma SRL, priority 2018, dated 2024).

target: IgE-Tb / sFcεRIα-Y131A-AF488 (Homo sapiens, UniProt P01854, N146Q/N252Q); assay: IgE-Tb / sFcεRIα-Y131A-AF488 FRET assay (protocol for examples 234 to 501); assay type: binding; details: examples 234 to 501: compound with IgE-Tb 30 minutes before sFcεRIα-Y131A-AF488, incubated 18 hours at room temperature; read-out: Y131A FRET IC50 range
How it was run: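 Compounds (10-point 3-fold series, top usually 10 μM, 2% DMSO) preincubated 30 min with 5 nM IgE-Tb, then 25 nM sFcεRIα-Y131A-AF488 added; 18 h at room temperature in the dark. TR-FRET ratio 520/490 nm after 337 nm excitation, background-subtracted; IC50 by four-parameter logistic fit.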

IgE-Tb / sFcεRIα-Y131A-AF488, sequence (P01854 whole entry N146Q/N252Q): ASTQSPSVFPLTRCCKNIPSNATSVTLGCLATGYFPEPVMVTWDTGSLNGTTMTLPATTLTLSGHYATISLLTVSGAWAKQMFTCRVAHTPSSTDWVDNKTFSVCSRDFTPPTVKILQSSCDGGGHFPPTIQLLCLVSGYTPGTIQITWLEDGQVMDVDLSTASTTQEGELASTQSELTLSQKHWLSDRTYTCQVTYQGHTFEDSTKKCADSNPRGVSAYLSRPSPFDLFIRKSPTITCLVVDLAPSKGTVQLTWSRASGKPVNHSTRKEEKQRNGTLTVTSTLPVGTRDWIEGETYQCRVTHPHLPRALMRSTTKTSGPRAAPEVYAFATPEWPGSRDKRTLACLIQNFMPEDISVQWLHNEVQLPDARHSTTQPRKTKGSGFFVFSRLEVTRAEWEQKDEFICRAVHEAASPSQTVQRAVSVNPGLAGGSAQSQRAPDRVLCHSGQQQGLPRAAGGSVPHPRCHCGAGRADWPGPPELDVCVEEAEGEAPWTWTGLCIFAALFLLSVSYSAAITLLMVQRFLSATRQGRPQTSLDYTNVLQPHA

| Structure (SMILES) | IC50 |
| --- | --- |
| Cn1nc(OC(F)F)cc1Nc1nncn1[C@H]1CCc2sc(NC(=O)C3CC3)c(C(=O)NCC3CCC3(F)F)c2C1 (stereo partly drawn) [Example 451, (5S)-2-(cyclopropanecarbonylamino)-N-[(2,2-difluorocyclobutyl)methyl]-5-[3-[[5-(difluoromethoxy)-2-methylpyrazol-3-yl]amino]-1,2,4-triazol-4-yl]-4,5,6,7-tetrahydro-1-benzothiophene-3-carboxamide] | < 1000 nM |
| Cn1nc(OC(F)F)cc1Nc1nncn1[C@H]1CCc2sc(NC(=O)C3CC(F)(F)C3)c(C(=O)NCC3CC3)c2C1 [Example 346, (5S)—N-(cyclopropylmethyl)-2-[(3,3-difluorocyclobutanecarbonyl)amino]-5-[3-[[5-(difluoromethoxy)-2-methylpyrazol-3-yl]amino]-1,2,4-triazol-4-yl]-4,5,6,7-tetrahydro-1-benzothiophene-3-carboxamide] | < 1000 nM |
| C[S+]([O-])c1cccc(Nc2nncn2[C@H]2CCc3sc(NC(=O)C4CC4)c(C(=O)NCC4CC4)c3C2)c1 (stereo partly drawn) [Example 251, (5S)-2-(cyclopropanecarbonylamino)-N-(cyclopropylmethyl)-5-[3-(3-methylsulfinylanilino)-1,2,4-triazol-4-yl]-4,5,6,7-tetrahydrobenzothiophene-3-carboxamide] | < 1000 nM |
| Cn1nc(C(F)F)cc1Nc1nncn1[C@H]1CCc2sc(NC(=O)C3CC3)c(C(=O)NC[C@@H]3CC3(F)F)c2C1 (single isomer, unassigned) [Example 383] | < 1000 nM |
| COc1cc(Nc2nncn2[C@H]2CCc3sc(NC(=O)[C@H]4C[C@@H]4C)c(C(=O)NC[C@H]4C[C@H](F)C4)c3C2)n(C)n1 [Example 467, (5S)—N-[trans-(3-fluorocyclobutyl)methyl]-5-[3-[(5-methoxy-2-methylpyrazol-3-yl)amino]-1,2,4-triazol-4-yl]-2-[[(1S,2S)-2-methylcyclopropanecarbonyl]amino]-4,5,6,7-tetrahydro-1-benzothiophene-3-carboxamide] | < 1000 nM |
| Cc1ncc(C#N)cc1Nc1nncn1[C@H]1CCc2sc(NC(=O)C3CC3)c(C(=O)NCC3CC3)c2C1 [Example 299, (5S)-5-[3-[(5-cyano-2-methyl-3-pyridyl)amino]-1,2,4-triazo-4-yl]-2-(cyclopropanecarbonylamino)-N-(cyclopropylmethyl)-4,5,6,7-tetrahydrobenzothiophene-3-carboxamide] | < 1000 nM |
| Cc1nocc1Nc1nncn1[C@H]1CCc2sc(NC(=O)C3CC3)c(C(=O)NCC3CC3)c2C1 [Example 308, (5S)-2-(cyclopropanecarbonylamino)-N-(cyclopropylmethyl)-5-[3-[(3-methylisoxazol-4-yl)amino]-1,2,4-triazol-4-yl]-4,5,6,7-tetrahydrobenzothiophene-3-carboxamide] | < 1000 nM |
| Cn1nc(C(F)F)cc1Nc1nncn1[C@H]1CCc2sc(NC(=O)[C@@H]3C[C@H]3F)c(C(=O)NCC3CC3)c2C1 (racemic) [Example 366, (5S)—N-(cyclopropylmethyl)-5-[3-[[5-(difluoromethyl)-2-methylpyrazol-3-yl]amino]-1,2,4-triazol-4-yl]-2-[[(1RS,2SR)-2-fluorocyclopropanecarbonyl]amino]-4,5,6,7-tetrahydro-1-benzothiophene-3-carboxamide] | < 1000 nM |
| C[C@H]1CCCN1C(=O)c1ncn([C@H]2CCc3sc(NC(=O)C4CC4)c(C(=O)NCC4CC4)c3C2)c1N [Example 261, (5S)-5-[5-amino-4-[(2S)-2-methylpyrrolidine-1-carbonyl]imidazol-1-yl]-2-(cyclopropanecarbonylamino)-N-(cyclopropylmethyl)-4,5,6,7-tetrahydrobenzothiophene-3-carboxamide] | < 1000 nM |
| Cn1nc(OCC2CC2)cc1Nc1nncn1[C@H]1CCc2sc(NC(=O)[C@H]3C[C@@H]3F)c(C(=O)NCC3CC3)c2C1 [Example 309, (5S)-5-[3-[[5-(cyclopropylmethoxy)-2-methyl-pyrazol-3-yl]amino]-1,2,4-triazol-4-yl]-N-(cyclopropylmethyl)-2-[[(1R,2S)-2-fluorocyclopropanecarbonyl]amino]-4,5,6,7-tetrahydrobenzothiophene-3-carboxamide] | < 1000 nM |
| COc1cnc(Nc2nncn2[C@H]2CCc3sc(NC(=O)C4CC4)c(C(=O)NCC4CC4)c3C2)c(C)n1 [Example 297, (5S)-2-(cyclopropanecarbonylamino)-N-(cyclopropylmethyl)-5-[3-[(5-methoxy-3-methyl-pyrazin-2-yl)amino]-1,2,4-triazol-4-yl]-4,5,6,7-tetrahydrobenzothiophene-3-carboxamide] | < 1000 nM |
| Cc1ccc(C2CC(Nc3nncn3[C@H]3CCc4sc(NC(=O)C5CC5)c(C(=O)NCC5CC5)c4C3)C2)cn1 (single isomer, unassigned) [Example 276] | < 1000 nM |
| COc1cc(Nc2nncn2[C@H]2CCc3sc(NC(=O)[C@H]4C[C@@H]4C)c(C(=O)NCC4CC4)c3C2)n(C)n1 [Example 468, (5S)—N-(cyclopropylmethyl)-5-[3-[(5-methoxy-2-methylpyrazol-3-yl)amino]-1,2,4-triazol-4-yl]-2-[[(1S,2S)-2-methylcyclopropanecarbonyl]amino]-4,5,6,7-tetrahydro-1-benzothiophene-3-carboxamide] | < 1000 nM |
| O=C1CC(Nc2nncn2[C@H]2CCc3sc(NC(=O)C4CC4)c(C(=O)NCC4CC4)c3C2)CCN1 (stereo partly drawn) [Example 272, (5S)-2-(cyclopropanecarbonylamino)-N-(cyclopropylmethyl)-5-[3-[(2-oxo-4-piperidyl)amino]-1,2,4-triazol-4-yl]-4,5,6,7-tetrahydrobenzothiophene-3-carboxamide] | < 1000 nM |
| Cn1nc(OC(F)(F)F)cc1Nc1nncn1[C@H]1CCc2sc(NC(=O)C3CC3)c(C(=O)NCC3CC3)c2C1 [Example 294, (5S)-2-(cyclopropanecarbonylamino)-N-(cyclopropylmethyl)-5-[3-[[2-methyl-5-(trifluoromethoxy)pyrazol-3-yl]amino]-1,2,4-triazol-4-yl]-4,5,6,7-tetrahydrobenzothiophene-3-carboxamide] | < 1000 nM |
| C[C@H]1C[C@@H]1C(=O)Nc1sc2c(c1C(=O)NC[C@@H]1C[C@@H]1F)C[C@@H](n1cnnc1Nc1cc(C(F)F)nn1C)CC2 [Example 435, (5S)-5-[3-[[5-(difluoromethyl)-2-methylpyrazol-3-yl]amino]-1,2,4-triazol-4-yl]-N-[[(1S,2S)-2-fluorocyclopropyl]methyl]-2-[[(1S,2S)-2-methylcyclopropanecarbonyl]amino]-4,5,6,7-tetrahydro-1-benzothiophene-3-carboxamide] | < 1000 nM |
| Cn1nc(C(F)F)cc1Nc1nncn1[C@H]1CCc2sc(NC(=O)[C@H]3CC34CC4)c(C(=O)NC3CC(F)(F)C3)c2C1 [Example 406, (5S)—N-(3,3-Difluorocyclobutyl)-5-[3-[[5-(difluoromethyl)-2-methylpyrazol-3-yl]amino]-1,2,4-triazol-4-yl]-2-[[(2S)-spiro[2.2]pentane-2-carbonyl]amino]-4,5,6,7-tetrahydro-1-benzothiophene-3-carboxamide] | < 1000 nM |
| Cn1nc(C(F)(F)F)cc1Nc1nncn1[C@H]1CCc2sc(NC(=O)[C@H]3C[C@H]3F)c(C(=O)NC[C@H]3C[C@H]3F)c2C1 [Example 399, (5S)-2-[[(1R,2R)-2-fluorocyclopropanecarbonyl]amino]-N-[[(1R,2R)-2-fluorocyclopropyl]methyl]-5-[3-[[2-methyl-5-(trifluoromethyl)pyrazol-3-yl]amino]-1,2,4-triazol-4-yl]-4,5,6,7-tetrahydro-1-benzothiophene-3-carboxamide] | < 1000 nM |
| Cn1nc(OC(F)F)cc1Nc1nncn1[C@H]1CCc2sc(NC(=O)C3CC3)c(C(=O)NC3CC34CC4)c2C1 (mixture of isomers) [Example 452, (5S)-2-(cyclopropanecarbonylamino)-5-[3-[[5-(difluoromethoxy)-2-methylpyrazol-3-yl]amino]-1,2,4-triazol-4-yl]-N-spiro[2.2]pentan-2-yl-4,5,6,7-tetrahydro-1-benzothiophene-3-carboxamide] | < 1000 nM |
| Cn1nc(C(F)(F)F)cc1Nc1nncn1[C@H]1CCc2sc(NC(=O)[C@H]3C[C@H]3F)c(C(=O)N[C@H]3CC34CC4)c2C1 (single isomer, unassigned) [Example 394] | < 1000 nM |
| Cn1nc(C(F)F)cc1Nc1nncn1[C@H]1CCc2sc(NC(=O)[C@H]3C[C@H](F)C3)c(C(=O)NCC3CC3)c2C1 [Example 354, (5S)—N-(cyclopropylmethyl)-5-[3-[[5-(difluoromethyl)-2-methylpyrazol-3-yl]amino]-1,2,4-triazol-4-yl]-2-[trans-(3-fluorocyclobutanecarbonyl)amino]-4,5,6,7-tetrahydro-1-benzothiophene-3-carboxamide] | < 1000 nM |
| CC(=O)N1CC[C@H](Nc2nncn2[C@H]2CCc3sc(NC(=O)C4CC4)c(C(=O)NCC4CC4)c3C2)C1 [Example 266, (5S)-5-[3-[[(3S)-1-acetylpyrrolidin-3-yl]amino]-1,2,4-triazol-4-yl]-2-(cyclopropanecarbonylamino)-N-(cyclopropylmethyl)-4,5,6,7-tetrahydrobenzothiophene-3-carboxamide] | < 1000 nM |
| CC(=O)N1CCC(Nc2nncn2[C@H]2CCc3sc(NC(=O)C4CC4)c(C(=O)NCC4CC4)c3C2)C1C (stereo partly drawn) [Example 273, (5S)-5-[3-[(1-acetyl-2-methyl-pyrrolidin-3-yl)amino]-1,2,4-triazol-4-yl]-2-(cyclopropanecarbonylamino)-N-(cyclopropylmethyl)-4,5,6,7-tetrahydrobenzothiophene-3-carboxamide] | < 1000 nM |
| CC1C(Nc2nncn2[C@H]2CCc3sc(NC(=O)C4CC4)c(C(=O)NCC4CC4)c3C2)CCN1S(C)(=O)=O (single isomer, unassigned) [Example 274] | < 1000 nM |
